How the values were obtained:
[1] = system: Caco2 cells deficient in PKD2; assay: 14C-fatty acid basolateral release in Caco2 cells expressing shPkd2 in transwell system; assay type: cell-based, human; details: 24 h, FIG. 6B
Method: Caco2 cells were cultured in Dulbecco's modified eagle's medium 4.5 g/L glucose (DMEM), 10% fetal bovine serum (FBS), non-essential amino acids (NEAA), 1 mM sodium pyruvate, and 40 μg/mL gentamycin. For the generation of shRNA cell lines, Pkd2 shRNA lentiviral sequences or scramble (non-targeting) were first cloned into the pLKO.1-puro vector then packed into viral particles in packaging cells (HEK293T) using 3rd generation packaging vectors. Caco2 cells were spinfected with viral supernatant then selected with puromycin and the deletion efficiency was further assessed by western blot.
Lipid transport studies were assessed in Caco2 cells seeded in trans-wells. 1.5×10^5 cells were seeded into a 12-well cell culture insert of 1 μm pore size Trans-well and maintained in for 14 consecutive days with media change every two days. For the lipids uptake and release, the apical side of the membrane was loaded with radioactive ^14C-palmitic acid (0.2 μCi), oleic acid (1 mM), and taurocholic acid (2 mM) in DMEM high glucose 10% FBS. The basal medium contained DMEM high glucose 0.1% FBS. After 24 hours of incubation, cell lysates and the apical and basolateral medium was collected and the ^14C-palmitic acid was measured in a scintillation counter for aliquots of apical and basal medium and for cell lysate. […]

[2] = system: male C57BL/6 mice on HFD; assay: Oral PKD inhibitor in mice with pre-established obesity (rescue, treatment after 7 weeks of HFD); assay type: in vivo, mouse
Method: Mice body weight development was closely monitored and reported here on a weekly basis when mice were on a specified diet. All experiments were performed in male mice. […] A glucose tolerance test (GTT) was performed after overnight fasting. Mice blood glucose was assessed before and 15, 30, 60, 90, and 120 minutes after intraperitoneal injection of glucose (2 g/kg). For the Insulin tolerance test (ITT), the same measurements were performed after 4 hours of fasting and intraperitoneal injection of 0.5 U/kg of recombinant insulin. For glucose measurements, one blood drop was drawn from the tail tip into a test strip and measured with a glucometer (Accu-Chek® Roche).

[3] = target: T1, PKD2 (Homo sapiens, UniProt Q9BZL6); assay: In-vitro kinase assay: PKD2 phosphorylation of APOA4; assay type: biochemical; details: recombinant human PKD2 and APOA4, western blot, FIG. 5H
T1 construct: purchased Abcam ab60875
T1 sequence (Q9BZL6 1-878): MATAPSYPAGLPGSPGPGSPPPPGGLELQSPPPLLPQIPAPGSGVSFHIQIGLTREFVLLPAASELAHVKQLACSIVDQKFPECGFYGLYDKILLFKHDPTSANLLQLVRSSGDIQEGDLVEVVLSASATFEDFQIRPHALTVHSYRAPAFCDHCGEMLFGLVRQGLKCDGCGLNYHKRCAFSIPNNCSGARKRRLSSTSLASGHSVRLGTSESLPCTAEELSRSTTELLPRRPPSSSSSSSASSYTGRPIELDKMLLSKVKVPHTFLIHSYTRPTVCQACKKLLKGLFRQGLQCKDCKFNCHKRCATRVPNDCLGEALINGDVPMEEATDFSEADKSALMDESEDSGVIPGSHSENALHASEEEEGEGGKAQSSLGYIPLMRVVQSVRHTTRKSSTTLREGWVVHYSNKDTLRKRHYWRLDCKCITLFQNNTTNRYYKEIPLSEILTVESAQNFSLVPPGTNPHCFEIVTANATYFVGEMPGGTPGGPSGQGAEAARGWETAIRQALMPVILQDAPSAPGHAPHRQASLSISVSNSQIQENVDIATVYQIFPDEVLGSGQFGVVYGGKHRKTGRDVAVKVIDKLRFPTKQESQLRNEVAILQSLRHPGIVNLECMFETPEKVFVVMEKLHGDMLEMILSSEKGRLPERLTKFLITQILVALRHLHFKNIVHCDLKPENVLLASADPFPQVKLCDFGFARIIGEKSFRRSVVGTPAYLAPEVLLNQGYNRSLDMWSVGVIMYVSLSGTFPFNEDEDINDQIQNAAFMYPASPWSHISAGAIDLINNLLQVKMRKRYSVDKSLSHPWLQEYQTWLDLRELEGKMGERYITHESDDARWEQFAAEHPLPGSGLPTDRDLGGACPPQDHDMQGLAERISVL
Method: Recombinant human proteins used for the study, PKD2 and APOA4, were both purchased from Abcam. […] Then, western blot was performed and incubated with a primary antibody against the phosphorylated motif (RxxS/T*) (Cell Signaling).

CC[C@@H](N)CNc1ccnc(-c2cc(-c3cnn(C)c3)ccc2O)n1 [CRT0066101]
TG secretion (basolateral release of 14C-labeled fatty acids) [1]: did not reduce TG secretion | glucose tolerance ([2]; 8 weeks after starting treatment, FIG. 7D): improved glucose tolerance | insulin sensitivity ([2]; 10 weeks after starting treatment, FIG. 7E): improved | weight gain ([2]; treatment started after 7 weeks HFD, HFD continued, vs water, FIG. 7A): significantly decreased weight gain | obesity (fat depots, fat mass by NMR) ([2]; treatment started after 7 weeks HFD, FIG. 7B-C): less obesity | PKD2-dependent phosphorylation of APOA4 [3]: abrogates PKD2-dependent phosphorylation

Reference: patent publication US20240082260A1, “INHIBITOR OF PROTEIN KINASE D FOR USE IN PREVENTION OR TREATMENT OF HYPERLIPIDEMIA” (priority 2021, published 2024)
